# Activity calls are given as the source filed them. The calls are words filed in the database; no cut-off is given here.
# Columns and labels:
# Cytochrome P450 3A4 = Cytochrome P450 3A4 (Homo sapiens, UniProt P08684); experiment: Inhibition of CYP3A4 (unknown origin); format: ADME
# [1] = target: T1, Serine/threonine-protein kinase mTOR (Mus musculus, UniProt Q9JLN9); experiment: Inhibition of mTOR in mouse MEF cells harboring TSC1 deletion mutant assessed as reduction in PS6 phosphorylation incuabted for 2 hrs alexa fluor 594 and Hoechst staining based fluorescence assay; format: cell-based
# [2] = Solubility of compound at pH 6.8; format: physicochemical; settings: buffer
# [3] = Stability in rat liver microsomes assessed as intrinsic clearance at 1 uM incubated for 30 mins by LC-MS/MS analysis; format: ADME, Microsome; settings: read-out: CLH
# MDR1 = experiment: Efflux ratio of permeability from basolateral to apical over apical to basolateral side in MDCK-MDR1 cells; format: ADME, cell-based, Canis lupus familiaris; settings: dog
# Cortical neurone [4] = experiment: Inhibition of overgrowth of mouse primary cortical neuron harboring TSC1 deletion mutant at 20 nM incubated for 7 days by immunofluorescence assay; format: functional, cell-based
# Cortical neurone [5] = experiment: Inhibition of oversizing of mouse primary cortical neuron harboring TSC1 deletion mutant at 20 nM incubated for 7 days by immunofluorescence assay; format: functional, cell-based; settings: 168 h
# Mus musculus = experiment: Protection against C57BL/6J mouse model of neuronal mTOR hyperactivity assessed as survival rate at 6 mg/kg, ip administered on postnatal day 22 daily and measured on postnatal day 52 (reference value: 48 %); format: functional
# [6] = target: T1, Serine/threonine-protein kinase mTOR; experiment: Inhibition of mTOR in mouse TSC1-/- MEF cells assessed as inhibition of S6 Ser240/244 phosphorylation incubated for 2 hrs by fluorescence based assay; format: cell-based
# [7] = target: Phosphatidylinositol 4,5-bisphosphate 3-kinase catalytic subunit alpha isoform (Homo sapiens, UniProt P42336); experiment: Inhibition of PI3Kalpha (unknown origin)
# [8] = target: Phosphatidylinositol 4,5-bisphosphate 3-kinase catalytic subunit beta isoform (Homo sapiens, UniProt P42338); experiment: Inhibition of PI3Kbeta (unknown origin)
# [9] = target: Phosphatidylinositol 4,5-bisphosphate 3-kinase catalytic subunit gamma isoform (Homo sapiens, UniProt P48736); experiment: Inhibition of PI3Kgamma (unknown origin)
# [10] = target: Phosphatidylinositol 4,5-bisphosphate 3-kinase catalytic subunit delta isoform (Homo sapiens, UniProt O00329); experiment: Inhibition of PI3Kdelta (unknown origin)
# Cytochrome P450 2D6 = Cytochrome P450 2D6 (Homo sapiens, UniProt P10635); experiment: Inhibition of CYP2D6 (unknown origin); format: ADME
# Cytochrome P450 2C9 = Cytochrome P450 2C9 (Homo sapiens, UniProt P11712); experiment: Inhibition of CYP2C9 (unknown origin); format: ADME
# [11] = Stability in mouse liver microsomes assessed as intrinsic clearance; format: ADME, Microsome; settings: read-out: CLH
# [12] = Stability in rat liver microsomes assessed as intrinsic clearance; format: ADME, Microsome; settings: read-out: CLH
# [13] = Stability in dog liver microsomes assessed as intrinsic clearance; format: ADME, Canis lupus familiaris, Microsome; settings: read-out: CLH
# [14] = Stability in monkey liver microsomes assessed as intrinsic clearance; format: ADME, Macaca mulatta, Microsome; settings: rhesus monkey, read-out: CLH
# [15] = Stability in human liver microsomes assessed as intrinsic clearance; format: ADME, Microsome; settings: read-out: CLH
# Cytochrome P450 3A4, sequence (P08684 whole entry): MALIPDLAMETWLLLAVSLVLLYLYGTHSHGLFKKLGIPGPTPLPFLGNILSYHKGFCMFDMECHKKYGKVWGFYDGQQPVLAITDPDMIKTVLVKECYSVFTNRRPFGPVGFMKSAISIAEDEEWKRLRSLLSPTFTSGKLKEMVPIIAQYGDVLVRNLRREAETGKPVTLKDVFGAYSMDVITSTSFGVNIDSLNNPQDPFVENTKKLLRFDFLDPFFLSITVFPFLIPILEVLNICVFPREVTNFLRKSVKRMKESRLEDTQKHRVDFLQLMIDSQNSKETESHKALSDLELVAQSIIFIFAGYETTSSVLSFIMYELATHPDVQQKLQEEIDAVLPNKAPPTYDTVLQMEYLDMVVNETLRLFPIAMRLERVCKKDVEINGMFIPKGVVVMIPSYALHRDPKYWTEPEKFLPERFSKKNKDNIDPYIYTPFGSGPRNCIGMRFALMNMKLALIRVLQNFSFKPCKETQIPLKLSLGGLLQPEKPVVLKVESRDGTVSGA
# Phosphatidylinositol 4,5-bisphosphate 3-kinase catalytic subunit gamma isoform, sequence (P48736 whole entry, canonical isoform): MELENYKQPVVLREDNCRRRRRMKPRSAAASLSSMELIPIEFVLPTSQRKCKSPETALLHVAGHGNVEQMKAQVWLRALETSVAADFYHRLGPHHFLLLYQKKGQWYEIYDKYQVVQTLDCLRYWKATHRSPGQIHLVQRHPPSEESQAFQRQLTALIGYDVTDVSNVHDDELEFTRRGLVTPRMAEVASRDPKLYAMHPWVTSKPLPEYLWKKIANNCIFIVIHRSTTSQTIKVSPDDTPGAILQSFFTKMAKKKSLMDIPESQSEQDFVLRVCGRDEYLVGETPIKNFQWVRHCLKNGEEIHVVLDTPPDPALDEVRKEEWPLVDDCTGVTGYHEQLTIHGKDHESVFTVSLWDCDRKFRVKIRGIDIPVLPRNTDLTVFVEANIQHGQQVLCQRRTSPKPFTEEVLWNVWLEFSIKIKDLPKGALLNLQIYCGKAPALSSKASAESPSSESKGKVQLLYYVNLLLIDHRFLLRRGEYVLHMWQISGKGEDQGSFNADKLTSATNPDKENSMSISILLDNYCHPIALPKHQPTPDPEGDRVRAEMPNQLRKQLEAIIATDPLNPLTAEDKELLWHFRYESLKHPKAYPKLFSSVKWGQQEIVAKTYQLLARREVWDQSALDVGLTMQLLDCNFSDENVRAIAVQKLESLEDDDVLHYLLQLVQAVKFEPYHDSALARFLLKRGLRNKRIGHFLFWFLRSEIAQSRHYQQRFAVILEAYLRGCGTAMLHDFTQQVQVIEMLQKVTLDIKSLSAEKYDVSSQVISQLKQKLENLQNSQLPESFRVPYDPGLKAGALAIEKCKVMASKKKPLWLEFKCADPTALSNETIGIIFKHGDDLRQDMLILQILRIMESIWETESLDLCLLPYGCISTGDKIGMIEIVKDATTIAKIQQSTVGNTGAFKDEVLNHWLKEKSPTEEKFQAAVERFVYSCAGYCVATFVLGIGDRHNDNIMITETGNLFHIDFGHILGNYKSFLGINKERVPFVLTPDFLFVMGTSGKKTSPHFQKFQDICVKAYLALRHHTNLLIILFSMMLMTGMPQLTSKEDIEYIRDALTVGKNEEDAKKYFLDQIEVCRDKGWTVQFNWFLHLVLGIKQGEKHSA
# Cytochrome P450 2C9, sequence (P11712 whole entry): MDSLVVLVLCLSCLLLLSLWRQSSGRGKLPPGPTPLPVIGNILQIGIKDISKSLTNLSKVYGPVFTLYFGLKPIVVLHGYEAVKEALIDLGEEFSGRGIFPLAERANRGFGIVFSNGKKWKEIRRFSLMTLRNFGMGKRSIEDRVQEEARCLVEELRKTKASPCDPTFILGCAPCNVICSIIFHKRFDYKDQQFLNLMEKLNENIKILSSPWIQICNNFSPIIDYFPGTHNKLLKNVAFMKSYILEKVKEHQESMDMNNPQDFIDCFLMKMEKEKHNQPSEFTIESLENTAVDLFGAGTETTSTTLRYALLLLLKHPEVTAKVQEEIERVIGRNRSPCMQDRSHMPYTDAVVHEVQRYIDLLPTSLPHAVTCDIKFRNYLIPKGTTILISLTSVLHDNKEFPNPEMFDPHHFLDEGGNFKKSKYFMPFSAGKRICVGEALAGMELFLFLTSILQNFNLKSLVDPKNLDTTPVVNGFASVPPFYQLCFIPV
# Phosphatidylinositol 4,5-bisphosphate 3-kinase catalytic subunit alpha isoform, sequence (P42336 whole entry, canonical isoform): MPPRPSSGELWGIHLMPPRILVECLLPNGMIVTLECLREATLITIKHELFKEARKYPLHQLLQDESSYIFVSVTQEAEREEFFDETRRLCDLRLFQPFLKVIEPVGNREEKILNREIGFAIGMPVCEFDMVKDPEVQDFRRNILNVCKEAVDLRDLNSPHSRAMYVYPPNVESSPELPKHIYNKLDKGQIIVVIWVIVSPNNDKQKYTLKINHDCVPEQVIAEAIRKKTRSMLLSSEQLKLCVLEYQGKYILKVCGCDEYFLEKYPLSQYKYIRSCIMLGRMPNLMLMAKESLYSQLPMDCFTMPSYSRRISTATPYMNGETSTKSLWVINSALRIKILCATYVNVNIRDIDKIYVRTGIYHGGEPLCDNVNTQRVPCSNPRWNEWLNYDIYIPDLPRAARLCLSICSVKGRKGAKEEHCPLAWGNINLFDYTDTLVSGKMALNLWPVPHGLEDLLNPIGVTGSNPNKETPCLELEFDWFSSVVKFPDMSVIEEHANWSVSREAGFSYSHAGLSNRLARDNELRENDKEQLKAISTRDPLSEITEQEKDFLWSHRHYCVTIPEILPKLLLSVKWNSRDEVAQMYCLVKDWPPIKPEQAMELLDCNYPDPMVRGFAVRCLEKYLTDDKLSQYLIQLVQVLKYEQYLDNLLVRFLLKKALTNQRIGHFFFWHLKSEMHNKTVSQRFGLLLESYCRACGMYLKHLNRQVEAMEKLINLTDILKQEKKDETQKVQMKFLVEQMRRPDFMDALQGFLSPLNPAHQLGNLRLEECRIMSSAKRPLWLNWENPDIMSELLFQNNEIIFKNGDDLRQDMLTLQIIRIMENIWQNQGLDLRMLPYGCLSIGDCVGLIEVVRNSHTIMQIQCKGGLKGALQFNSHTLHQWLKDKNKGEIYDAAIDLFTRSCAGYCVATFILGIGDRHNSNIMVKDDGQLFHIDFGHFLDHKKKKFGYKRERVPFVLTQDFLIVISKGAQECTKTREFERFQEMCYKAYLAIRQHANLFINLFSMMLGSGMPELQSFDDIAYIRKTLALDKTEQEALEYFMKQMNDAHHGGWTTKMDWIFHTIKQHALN
# Cytochrome P450 2D6, sequence (P10635 whole entry): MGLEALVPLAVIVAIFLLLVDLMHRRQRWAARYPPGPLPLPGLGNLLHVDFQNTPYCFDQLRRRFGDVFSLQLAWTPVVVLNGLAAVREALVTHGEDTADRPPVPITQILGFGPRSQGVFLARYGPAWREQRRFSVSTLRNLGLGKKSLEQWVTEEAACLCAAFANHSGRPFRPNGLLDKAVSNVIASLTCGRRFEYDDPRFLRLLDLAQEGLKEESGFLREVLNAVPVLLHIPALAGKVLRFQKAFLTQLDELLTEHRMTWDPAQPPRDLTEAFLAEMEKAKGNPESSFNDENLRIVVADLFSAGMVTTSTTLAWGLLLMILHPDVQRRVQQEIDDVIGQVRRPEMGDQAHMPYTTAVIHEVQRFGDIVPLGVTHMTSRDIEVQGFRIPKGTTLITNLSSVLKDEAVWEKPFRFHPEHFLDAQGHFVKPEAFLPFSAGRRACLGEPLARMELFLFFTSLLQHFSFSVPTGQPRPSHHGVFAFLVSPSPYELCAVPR
# Phosphatidylinositol 4,5-bisphosphate 3-kinase catalytic subunit beta isoform, sequence (P42338 whole entry, canonical isoform): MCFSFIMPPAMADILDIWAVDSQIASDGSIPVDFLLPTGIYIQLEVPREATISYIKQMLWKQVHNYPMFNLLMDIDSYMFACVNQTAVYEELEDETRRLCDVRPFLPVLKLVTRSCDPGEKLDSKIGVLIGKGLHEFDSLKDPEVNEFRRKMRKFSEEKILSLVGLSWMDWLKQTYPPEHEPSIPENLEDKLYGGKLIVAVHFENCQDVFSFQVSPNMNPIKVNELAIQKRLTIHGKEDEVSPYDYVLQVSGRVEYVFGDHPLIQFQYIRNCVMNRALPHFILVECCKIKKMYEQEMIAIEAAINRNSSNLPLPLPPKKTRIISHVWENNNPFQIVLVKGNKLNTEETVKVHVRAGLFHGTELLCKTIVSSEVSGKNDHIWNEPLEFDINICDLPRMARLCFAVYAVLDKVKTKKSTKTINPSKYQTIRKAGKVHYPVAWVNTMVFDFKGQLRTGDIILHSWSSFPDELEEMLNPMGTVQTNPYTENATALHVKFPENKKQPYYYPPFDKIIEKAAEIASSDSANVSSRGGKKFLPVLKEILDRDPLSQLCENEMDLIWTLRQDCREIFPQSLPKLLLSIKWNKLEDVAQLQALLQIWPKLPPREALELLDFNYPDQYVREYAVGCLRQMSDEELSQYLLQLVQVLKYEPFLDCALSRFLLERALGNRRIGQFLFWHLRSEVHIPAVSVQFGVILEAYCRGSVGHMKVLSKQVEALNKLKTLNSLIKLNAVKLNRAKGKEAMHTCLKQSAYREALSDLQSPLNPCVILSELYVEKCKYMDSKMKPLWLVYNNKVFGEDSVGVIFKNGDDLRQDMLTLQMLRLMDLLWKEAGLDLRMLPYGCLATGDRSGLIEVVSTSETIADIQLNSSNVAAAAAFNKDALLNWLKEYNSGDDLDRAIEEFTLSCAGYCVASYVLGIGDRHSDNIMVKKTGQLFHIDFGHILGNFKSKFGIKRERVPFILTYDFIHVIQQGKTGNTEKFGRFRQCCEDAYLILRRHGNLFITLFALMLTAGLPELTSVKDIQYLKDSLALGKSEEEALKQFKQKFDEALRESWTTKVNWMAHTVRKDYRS
Compound,K (Cytochrome P450 3A4) [min⁻¹],IC50 [1] [nM],solubility [2] [µg/mL],microsomal CLint at 1 µM [3] [µL/min/mg],further results
C[C@@H]1COCCN1c1nc(CN2CCOCC2)nc2sc(-c3cc[nH]n3)nc12,0.008,92,325,> 924,–
C[C@@H]1COCCN1c1nc(N2CCOC[C@@H]2C)nc2sc(-c3cccc(O)c3)nc12,0.035,278,–,–,–
C[C@@H]1COCCN1c1nc(C2CCOCC2)nc2sc(-c3cc[nH]n3)nc12,0.003,6.3,9,37,–
C[C@@H]1COCCN1c1nc(N2CCN(C)CC2)nc2sc(-c3cc[nH]n3)nc12,0.001,134,191,> 924,–
C[C@@H]1COCCN1c1nc(N2CCOC[C@@H]2C)nc2sc(-c3cn[nH]n3)nc12,0.01,6.9,–,–,efflux ratio (MDR1): 0.65
CO[C@H]1C[C@@H]2CC[C@@H](C)[C@@](O)(O2)C(=O)C(=O)N2CCCC[C@H]2C(=O)O[C@H]([C@H](C)C[C@@H]2CC[C@@H](OCCO)[C@H](OC)C2)CC(=O)[C@H](C)/C=C(\C)[C@@H](O)[C@@H](OC)C(=O)[C@H](C)C[C@H](C)/C=C/C=C/C=C/1C [EVEROLIMUS],–,–,–,–,inhibition (Cortical neurone [4]): Active; IC50 (Cortical neurone [5]): 0.15 nM; Activity (Mus musculus): 100%
CC(C)c1nc(N2CCOC[C@H]2C)c2nc(-c3cc[nH]n3)sc2n1,0.012,3.7,< 1,104,–
C[C@@H]1COCCN1c1nc(N2CCOC[C@@H]2C)nc2[nH]c(-c3cccc4[nH]ccc34)nc12,0.08,–,–,–,efflux ratio (MDR1): 0.95; IC50 [6]: 38 nM; IC50 [7]: 6600 nM; IC50 [8]: > 10000 nM; IC50 [9]: 6600 nM; IC50 [10]: 800 nM; IC50 (Cytochrome P450 2D6): 12800 nM; IC50 (Cytochrome P450 2C9): 1980 nM; microsomal CLint [11]: 62 µL/min/mg; microsomal CLint [12]: 35 µL/min/mg; microsomal CLint [13]: 60 µL/min/mg; microsomal CLint [14]: 121 µL/min/mg; microsomal CLint [15]: 27 µL/min/mg
C[C@@H]1COCCN1c1nc(N2CCOCC2)nc2sc(-c3cc[nH]n3)nc12,0.011,5.3,4,24,–
C[C@@H]1COCCN1c1nc(N2CCOC[C@@H]2C)nc2sc(-c3c[nH]cn3)nc12,0.013,7.8,–,–,efflux ratio (MDR1): 0.89
C[C@@H]1COCCN1c1nc(N2CCCOCC2)nc2sc(-c3cc[nH]n3)nc12,0.011,2.7,< 2,164,–
C[C@@H]1COCCN1c1nc(N2CCOC[C@@H]2C)nc2sc(-c3cn[nH]c3)nc12,0.02,56,–,–,–
C[C@@H]1COCCN1c1nc(N2CCOC[C@@H]2C)nc2sc(-c3cccc4[nH]ccc34)nc12,0.027,305,–,–,–
C[C@@H]1COCCN1c1ncnc2sc(-c3cc[nH]n3)nc12,0.006,603,–,100,–
